Entries after “also recorded” stand apart in the source; their conditions may differ. Like-named read-outs stand apart in the source and are kept apart here. Values belong to the compound of their own block, whether it stands above or below them.
Assays:
GPR35 [1] = target: T1, GPR35 (Homo sapiens, UniProt Q9HC97); experiment: Tango β-arrestin translocation gene reporter assay in U2OS-GPR35-bla cells; format: cell-based; set-up: TEV protease site (C); Gal4-VP16 transcription factor (C); conditions: for EC50: read-out: Potency EC50, Tango; for β-arrestin translocation (Tango) signal (in words): 2,3-DNP up to 1 mM, 3,4-DNP at 1 mM
GPR35 [2] = target: T1, GPR35; experiment: DMR agonism assay in native HT-29 cells (Epic optical biosensor); conditions: for DMR signal in HT-29 cells (in words): agonism mode
GPR35 [3] = target: T1, GPR35
GPR35 [4] = target: T1, GPR35; conditions: U2OS-GPR35-bla
GPR35 [5] = target: T1, GPR35; experiment: cell-based
GPR35 [6] = target: T1, GPR35; remark: listed apart in the source
[7] = U2OS-GPR35-bla cells, β-arrestin translocation, mean ± s.d.
[8] = HT-29, ML-145 at different doses 10 min before agonist at fixed dose
[9] = U2OS-GPR35-bla, zaprinast maximal response in same plate = 100%, read-out: efficacy (Tango, normalized to maximal response of zaprinast)
[10] = maximal response normalized to the zaprinast maximal response, read-out: Efficacy Tango
[11] = maximal response normalized to the zaprinast maximal response
[12] = maximal DMR response in HT-29 (2,5-DNP: amplitude at 50 min)

T1 sequence (Q9HC97 whole entry, the tested form may be a part): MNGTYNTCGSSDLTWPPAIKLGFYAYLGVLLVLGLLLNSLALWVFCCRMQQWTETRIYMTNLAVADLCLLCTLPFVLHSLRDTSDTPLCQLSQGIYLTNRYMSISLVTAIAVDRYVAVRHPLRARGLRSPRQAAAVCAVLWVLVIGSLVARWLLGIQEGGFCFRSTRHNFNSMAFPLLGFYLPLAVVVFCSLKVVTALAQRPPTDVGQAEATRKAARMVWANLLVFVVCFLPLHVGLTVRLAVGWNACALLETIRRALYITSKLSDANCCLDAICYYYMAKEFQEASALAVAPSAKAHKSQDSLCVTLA

EC50 (GPR35 [1]; [7]): 1.26 µM
agonist type compared to zaprinast, based on maximal responses in Tango assays (GPR35 [1]; U2OS-GPR35-bla, listed as olasalazine): full agonists
EC50 (GPR35 [2]): 0.0218 µM
Compound: O=C(O)c1cc(/N=N/c2ccc(O)c(C(=O)O)c2)ccc1O (single isomer, unassigned) [olsalazine]

Compound: O=[N+]([O-])c1ccc(O)c([N+](=O)[O-])c1 [2,4-DNP, 2,4-dinitrophenol]
inhibition of the agonist-induced DMR by ML-145 (in words) (GPR35 [3]): partial inhibition; also recorded: partially inhibited
Emax (GPR35 [1]; read-out: Efficacy Tango): 28 ± 1%
EC50 (GPR35 [1]): 272 µM
Emax (GPR35 [1]; read-out: efficacy (Tango, normalized to maximal response of zaprinast)): 28%
Efficacy DMR (GPR35 [2]): 249 ± 17 pm

Compound: O=[N+]([O-])c1cc(O)c(O)c([N+](=O)[O-])c1 [3,5-dinitrocatechol]
EC50 (GPR35 [1]): 123 µM

inhibition of the agonist-induced DMR by ML-145 (in words) (GPR35 [3]; [8]): can be blocked by ML-145
block of the agonist-induced Tango signal by ML-145 (in words) (GPR35 [4]): can be blocked by ML-15
β-arrestin translocation (Tango) signal (in words) (GPR35 [1]; U2OS-GPR35-bla): trigger Tango signal
DMR signal in HT-29 cells (in words) (GPR35 [2]): active
Compound: COc1cccc(O)c1O [3-methoxycatechol]

agonist type compared to zaprinast, based on maximal responses in Tango assays (GPR35 [1]; U2OS-GPR35-bla): strong partial agonist
EC50 (GPR35 [1]; [7]): 1.7 µM
EC50 (GPR35 [2]): 0.00209 µM
Compound: O=C(O)c1cc(/N=N/c2ccc(O)c(C(=O)O)c2)ccc1O [Bi-ASA, (E)-(5,5-diazene-1,2-diyl)bis(2-hydroxybenzoic acid)]

agonist type compared to zaprinast, based on maximal responses in Tango assays (GPR35 [1]; U2OS-GPR35-bla): weak partial agonist
EC50 (GPR35 [1]; [7]): 545 µM
EC50 (GPR35 [5]): 14.7 µM
Compound: Nc1ccc(O)c(C(=O)O)c1 [Compound 5-ASA, 5-aminosalicylic acid]

Emax (GPR35 [1]; [9]): 6%
Emax (GPR35 [1]; [10]): 6 ± 1%
Compound: CCN(CC)C(=O)/C(C#N)=C/c1cc(O)c(O)c([N+](=O)[O-])c1 [Entacapone]

inhibition of the agonist-induced DMR by ML-145 (in words) (GPR35 [3]; [8]): partially inhibited
EC50 (GPR35 [1]; [7]): 54.4 µM
efficacy (Tango, normalized to maximal response of zaprinast) (GPR35 [1]; U2OS-GPR35-bla, zaprinast maximal response in same plate = 100%): 13%
Efficacy Tango (GPR35 [1]; [11]): 13 ± 1 % zaprinast
EC50 (GPR35 [6]): 8.66 µM
Efficacy DMR (GPR35 [2]; [12]): 257 ± 16 pm
Compound: O=C(c1cc(O)c(O)c([N+](=O)[O-])c1)c1ccccc1F [Ro41-0960]

Compound: Cc1ccc(C(=O)c2cc(O)c(O)c([N+](=O)[O-])c2)cc1 [Tolcapone, 3,4-dihydroxy-4′-methyl-5-nitrobenzophenone]
inhibition of the agonist-induced DMR by ML-145 (in words) (GPR35 [3]; [8]): partially inhibited
inhibition of the agonist-induced DMR by ML-145 (in words) (GPR35 [3]; HT-29, ML-145 at different doses 10 min before agonist at fixed dose, listed as tolcapone): partial inhibition
EC50 (GPR35 [1]; [7]): 49.2 µM
Emax (GPR35 [1]; [9]): 25%
Emax (GPR35 [1]; [10]): 25 ± 2%
EC50 (GPR35 [6]): 7.44 µM
DMR signal in HT-29 cells (in words) (GPR35 [2]): positive DMR with an early peak followed by a small decay to another elevated plateau
Efficacy DMR (GPR35 [2]; [12]): 400 ± 33 pm

Emax (GPR35 [1]; [9]): 100%
Efficacy Tango (GPR35 [1]; [11]): 100 ± 9 % zaprinast
Efficacy DMR (GPR35 [2]; [12]): 254 ± 14 pm
Compound: CCCOc1ccccc1-c1nc(=O)c2[nH]nnc2[nH]1 [Zaprinast]

agonist type compared to zaprinast, based on maximal responses in Tango assays (GPR35 [1]; U2OS-GPR35-bla): full agonists
EC50 (GPR35 [1]; [7]): 46.2 µM
EC50 (GPR35 [5]): 2.59 µM
Compound: O=C(O)CCNC(=O)c1ccc(/N=N/c2ccc(O)c(C(=O)O)c2)cc1 [balsalazide]

inhibition of the agonist-induced DMR by ML-145 (in words) (GPR35 [3]; [8]): can be blocked by ML-145
block of the agonist-induced Tango signal by ML-145 (in words) (GPR35 [4]): can be blocked by ML-15
β-arrestin translocation (Tango) signal (in words) (GPR35 [1]; U2OS-GPR35-bla): trigger Tango signal
DMR signal in HT-29 cells (in words) (GPR35 [2]): active
Compound: CCCCCCCCOC(=O)c1cc(O)c(O)c(O)c1 [octyl gallate]

inhibition of the agonist-induced DMR by ML-145 (in words) (GPR35 [3]; [8]): can be blocked by ML-145
block of the agonist-induced Tango signal by ML-145 (in words) (GPR35 [4]): can be blocked by ML-15
β-arrestin translocation (Tango) signal (in words) (GPR35 [1]; U2OS-GPR35-bla): trigger Tango signal
DMR signal in HT-29 cells (in words) (GPR35 [2]): active
Compound: CCCOC(=O)c1cc(O)c(O)c(O)c1 [propyl gallate]

inhibition of the agonist-induced DMR by ML-145 (in words) (GPR35 [3]; [8]): can be blocked by ML-145
block of the agonist-induced Tango signal by ML-145 (in words) (GPR35 [4]): can be blocked by ML-15
β-arrestin translocation (Tango) signal (in words) (GPR35 [1]; U2OS-GPR35-bla): trigger Tango signal
DMR signal in HT-29 cells (in words) (GPR35 [2]): active
Compound: Oc1cccc(O)c1O [pyrogallol]

agonist type compared to zaprinast, based on maximal responses in Tango assays (GPR35 [1]; U2OS-GPR35-bla): partial agonist
EC50 (GPR35 [1]; [7]): 31.3 µM
EC50 (GPR35 [5]): 2.99 µM
Compound: O=C(O)c1cc(/N=N/c2ccc(S(=O)(=O)Nc3ccccn3)cc2)ccc1O [sulfasalazine]
